Measurements: patent US20230391868A1, “COMPOSITIONS FOR AND METHODS OF TREATING CANCER” (The George Washington University, priority 2022, published 2023)

How the values were obtained:
SM1 melanoma cells = assay: Flow cytometry-based phagocytosis assay, BMDMs co-cultured with SM1 cells; format: cell-based, mouse; settings: NextA treated vs untreated macrophages (FIG. 4)
Procedure: To evaluate phagocytosis by flow cytometry, SM1 melanoma cells were co-cultured with A3.1A7 cells or BMDMs derived from wild-type C57/Bl6 mice at a 2:1 ratio for 2 hr. or 4 hr. in serum-free media. Twenty-four (24) hours prior to co-culture, macrophages were polarized to their respective phenotypes as previously described in the presence or absence of NextA, and melanoma cells were untreated or treated with NextA. On the day of the co-culture, melanoma cells were stained with 1 μM of CellTrace™ CFSE Cell Proliferation Kit (ThermoFisher, C34554) and were washed extensively to remove excess dye. Phagocytosis assays were carried out in the presence of anti-mouse CD47 (clone miap301, 127502, Biolegend, San Diego, CA) and its respective isotype control (IgG, 400502, Biolegend), or anti human CD47 (clone CC2C6, 323102, Biolegend) or isotype control (MOPC-21, BE0083, Biolegend) at 25 μg/mL. Co-culture was set up in non-cell culture treated 96 U-well plates. […]
Flow cytometry data was acquired a BD FACS Celesta Cell Analyzer, and data analysis was performed with FlowJo software version 10.3. Phagocytosis was determined as the percentage of CFSE+F4/80+ or CFSE+ CD11b+ cells out of total F4/80+ or total CD11b+ cells. […]

[1] = tested on: A31A7 macrophages and BMDMs; assay: Macrophage M1/M2 marker gene expression by qRT-PCR; format: cell-based, mouse
Procedure: Bone marrow-derived macrophages were isolated from the femurs and tibias of wild-type C57/Bl6, HDAC6 knockout (C57BL/6J-Hdac6em2Lutzy/J, 029318, Jackson Laboratory), or UBC-GFP (C57BL/6-Tg(UBC-GFP)30Scha/J, 004353, Jackson Laboratory). Isolated bone marrow cells were cultured in RPMI 1640 complete medium with 10% FBS, 1% NEAA, and 1% penicillin-streptomycin in 5% CO2 at 37° C. Medium was supplemented with murine recombinant M-CSF (20 ng/mL, 576404, Biolegend) to differentiate monocytes into macrophages. Three days after bone marrow isolation, undifferentiated and floating cells were washed with PBS and replaced with fresh RPMI media. […]
Macrophages were polarized to M1-like phenotype using 50 ng/mL of interferon gamma (IFNγ, 575306, Biolegend) and 100 ng/mL of bacterial lipopolysaccharide (LPS, L2880, Sigma Aldrich, St. Louis, MO) for 24 hours. To polarize macrophages towards the M2-like phenotype, macrophages were stimulated with 20 ng/mL of IL-4 (214-14, PeproTech) and 20 ng/mL of IL-13 (575904, Biolegend). THP1 monocytes were treated with 5 ng/mL of phorbol 12-myristate 13-acetate (PMA) to induce differentiation into macrophages. Once converted to macrophages, media was replaced to remove PMA prior to treatment and/or polarization. Polarization towards M1 and M2 phenotypes was performed with respective recombinant human cytokines from PeproTech: 50 ng/mL of IFNγ (300-02), 20 ng/mL IL-4 (200-04), and 20 ng/mL IL-13 (200-13). 100 ng/mL LPS was also used to polarize toward the M1 phenotype. 3. In vivo Studies.
qRT-PCR: Total RNA was extracted from cells using the Trizol reagent according to manufacturer's instructions (ThermoFisher Scientific, 15596018). Samples were then processed immediately or stored at −80° C. RNA was quantified using a NanoDrop One Spectrophotometer (ThermoFisher Scientific). The 260/280 ratios were routinely over 1.8. Sample cDNA was produced using the iScript cDNA synthesis kit (Bio-Rad, 1708891). Target mRNA was quantified using MyIQ single-color real-time PCR detection system from Bio-Rad (Bio-Rad, Hercules, CA) and iQ SYBR green Supermix (Bio-Rad, 1708882). The following primers were synthesized by Invitrogen (Waltham, MA) with sequences designed by Origene (Rockville, MD): mouse R-actin (MP200232), mouse Nos2 (MP208933), mouse MRC1 (MP207800), human R-actin (HP204660), human IL-1β (HP200544), human MRC1 (HP206121), human NOS2 (HP200591), human CD209 (HP214086), mouse SIRPα (MP215450), mouse LRP1 (MP207604), human LRP1 (HP206040), mouse MFGE8 (MP208190), human MFGE8 (HP225757), mouse CD36 (MP201923), human CD36 (HP200058), and mouse CD47 (MP201932). Primers for mouse ARG-1 (PPM31770C) and human SIRPα (QT01031051) were purchased from Qiagen (Hilden, Germany). Human CD47 primer sequences were obtained from Sudo T, et al and are 5′-[…]-3′ (sense) (SEQ ID NO:01) and 5′-[…]-3′ (antisense) (SEQ ID NO:02) (Sudo T, et al. (2017) Oncol. Lett. 14:801-809). Human CD86 primer sequences are 5′-[…]-3′ (sense) (SEQ ID NO:03) and 5′-[…]-3′ (antisense) (SEQ ID NO:04). Mouse CD80 sequences are 5′-[…]-3′ (sense) (SEQ ID NO:05) and 5′-[…]-3′ (antisense) (SEQ ID NO:06). Cycling conditions were set as per manufacturer's instructions. Single product amplification was confirmed by melting curve analysis. Quantification is expressed in arbitrary units and target mRNA levels were normalized to R-actin expression.

How did the “phagocytic capacity of macrophages” value (SM1 melanoma cells) turn out when `CCCCN(Cc1ccc(C(=O)NO)cc1)C(=O)Nc1ccccc1` [NextA, Nexturastat A] was run?
The value was “enhanced the phagocytic capacity”.

What about the “phenotypic changes in both macrophage polarizations” value ([1]; A31A7, 5 μM of NextA) of the same compound?
Its value is “elicited observable phenotypic changes”.

What about the “expression of Cd80 in M1 polarized macrophages” value ([1]; A31A7, different concentrations of NextA, qRT-PCR (FIG. 7B)) of the same compound?
The value was “concentration-dependent effect”.

And the “expression of Arg1 in M2 polarized macrophages” value ([1]; A31A7, different concentrations of NextA, qRT-PCR (FIG. 7C))?
The value was “concentration-dependent effect”.

What about the “Nos2 and Cd80 at the transcriptional level” value ([1]; A31A7 and BMDMs polarized to M1 or M1(IFNγ), 5 μM (FIG. 1A)) of the same compound?
The value was “tended to significantly upregulate”.

What about the “expression of M2-associated markers Arg1 and Mrc1” value ([1]; A31A7 cells and BMDMs, M2, qRT-PCR, 5 μM (FIG. 1C)) of the same compound?
Its value is “significantly downregulated”.
